pIC50: −log10 of the molar value. Like-named read-outs stand apart in the source and are kept apart here. Residues, ends and D or L forms follow the SMILES beside them. *: point of attachment. Cbz = O=C(OCc1ccccc1)*
Assays:
USP5 = USP5 (Homo sapiens (Human), UniProt P45974); conditions: cited from earlier work
USP9X = USP9X (Homo sapiens (Human), UniProt Q93008); conditions: cited from earlier work
USP24 = USP24 (Homo sapiens (Human), UniProt Q9UPU5); conditions: cited from earlier work
Mcl-1 = assay: Western blot of Mcl-1 in U937 cells; assay type: cell-based; conditions: agent alone
Method: After 24 hours treatment with Compound 7A, U937 cells were collected by centrifugation and whole cell lysates were prepared. These lysates were analyzed by Western blot to determine the level of Mcl-1. Western blot analysis was carried out as previously described (Wang et al., 2014 Journal of the American Society of Nephrology DOI: 10.1681/asn.2013060665). The band intensity for Mcl-1 in these samples were normalized to that of tubulin to correct for any inconsistencies in total protein in loading and processing the whole cell lysates.
To investigate the mechanism of action, Western blot analysis was carried out to test the induced degradation of USP9X substrate Mcl-1 by the compounds under the effects of protein synthesis inhibitor cycloheximide and/or proteasome inhibitor MG132. U937 cells were treated with 10 μM cycloheximide for one hour, with 10 μM MG132 for one hour, with the combination of 10 μM cycloheximide and 10 μM MG132 for one hour, and with vehicle (DMSO) for one hour, respectively, prior to the treatment with Compound 5A for 24 hrs. The U937 cells were harvested after treatment and whole cell lysates were prepared. These lysates were analyzed by Western blot to determine the abundance of Mcl-1 as well as that of tubulin as a normalization control. […] The band intensity of the Mcl-1 in cells treated with cycloheximide alone (Lane 2) was reduced relative to that for tubulin. […] Global blockade of protein synthesis by cycloheximide led to a significant decrease in the expression levels, especially for short lived Mcl-1. The retention of a reduced portion of Mcl-1 indicated the immunity of this portion to proteasomal degradation. […] In contrast, the band intensity of Mcl-1 relative to that of tubulin increased upon treatment of U937 cells with the proteasome inhibitor MG132 (Lane 4). […] Together, the results of this Example are consistent with the compounds acting on the proposed mechanism that intracellular inhibition of the deubiquitylase activity of USP9X blocks its ability to rescue USP9X substrates such as Mcl-1 from proteasomal degradation. In other aspects, by varying the concentration ratios of the compound and proteasome inhibitor for treating cells, it was possible to achieve controlled degradation of a USP9X substrate so the substrate could decline to a desirable level rather than degrade entirely.

A549 = assay: ONCOLINES Profiler proliferation; assay type: cell-based; conditions: A549, lung
From the text: (§1) The compounds were profiled on an ONCOLINES™ Profiler (Netherlands Translational Research Center) assayed with 66 cancer cell lines to determine if they were capable of inhibiting the proliferation of these cancer cells.
(§2) To further evaluate potency of the compounds, they were compared with the USP9X inhibitor WP 1130 by screening both the compounds and WP1130 on a 66-cancer cell line panel ONCOLINES™ Profiler.

RKO = assay: ONCOLINES Profiler proliferation; assay type: cell-based; conditions: colon carcinoma
From the text: as §1, §2

H82 = assay: ONCOLINES Profiler proliferation; assay type: cell-based; conditions: H82, small cell lung
From the text: as §1, §2

DU 145 = assay: ONCOLINES Profiler proliferation; assay type: cell-based; conditions: DU 145, prostate carcinoma
From the text: as §1, §2

A-172 = assay: ONCOLINES Profiler proliferation; assay type: cell-based; conditions: A-172, glioblastoma
From the text: as §1, §2

Hs 57BT = assay: ONCOLINES Profiler proliferation; assay type: cell-based; conditions: Hs 57BT (Hs578T), breast carcinoma
From the text: as §1, §2

RPMI-7951 = assay: ONCOLINES Profiler proliferation; assay type: cell-based; conditions: RPMI-7951, malignant melanoma
From the text: as §1, §2

BT-20 = assay: ONCOLINES Profiler proliferation; assay type: cell-based; conditions: BT-20, breast carcinoma
From the text: as §1, §2

MOLT-4 = assay: ONCOLINES Profiler proliferation; assay type: cell-based; conditions: MOLT-4, acute lymphoblastic leukemia
From the text: as §1, §2

CCRF-CEM = assay: ONCOLINES Profiler proliferation; assay type: cell-based; conditions: acute lymphoblastic leukemia
From the text: as §1, §2

LoVo = assay: ONCOLINES Profiler proliferation; assay type: cell-based; conditions: colorectal adenocarcinoma
From the text: as §1, §2

BT-549 = assay: ONCOLINES Profiler proliferation; assay type: cell-based, human; conditions: BT-549, breast ductal carcinoma
From the text: as §1, §2

USP14 = USP14 (Homo sapiens (Human), UniProt P54578); conditions: cited from earlier work
USP14, sequence (P54578 whole entry, species assumed): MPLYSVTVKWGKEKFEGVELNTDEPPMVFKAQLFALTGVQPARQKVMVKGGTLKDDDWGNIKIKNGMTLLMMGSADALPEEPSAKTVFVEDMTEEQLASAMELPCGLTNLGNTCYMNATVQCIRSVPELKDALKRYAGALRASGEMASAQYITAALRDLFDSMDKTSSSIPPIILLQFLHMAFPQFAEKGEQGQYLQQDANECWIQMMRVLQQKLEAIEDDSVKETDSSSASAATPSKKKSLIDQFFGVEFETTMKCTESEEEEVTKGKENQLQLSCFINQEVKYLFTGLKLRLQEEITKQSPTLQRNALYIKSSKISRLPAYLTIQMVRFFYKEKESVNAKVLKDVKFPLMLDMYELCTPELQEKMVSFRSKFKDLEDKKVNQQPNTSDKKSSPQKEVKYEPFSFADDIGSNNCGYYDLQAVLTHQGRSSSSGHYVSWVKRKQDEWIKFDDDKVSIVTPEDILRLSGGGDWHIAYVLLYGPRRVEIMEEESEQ

UCH-L1 = UCH-L1 (Homo sapiens (Human), UniProt P09936); conditions: cited from earlier work
UCH-L1, sequence (P09936 whole entry, species assumed): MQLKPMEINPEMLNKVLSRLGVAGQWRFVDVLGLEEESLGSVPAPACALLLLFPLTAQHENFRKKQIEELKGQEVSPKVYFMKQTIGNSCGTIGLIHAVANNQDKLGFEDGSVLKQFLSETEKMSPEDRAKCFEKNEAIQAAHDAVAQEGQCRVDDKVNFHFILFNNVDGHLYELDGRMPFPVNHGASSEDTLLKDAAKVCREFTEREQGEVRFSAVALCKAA

UCH37 = UCH37 (Homo sapiens (Human), UniProt Q9Y5K5); conditions: cited from earlier work
UCH37, sequence (Q9Y5K5 whole entry, species assumed): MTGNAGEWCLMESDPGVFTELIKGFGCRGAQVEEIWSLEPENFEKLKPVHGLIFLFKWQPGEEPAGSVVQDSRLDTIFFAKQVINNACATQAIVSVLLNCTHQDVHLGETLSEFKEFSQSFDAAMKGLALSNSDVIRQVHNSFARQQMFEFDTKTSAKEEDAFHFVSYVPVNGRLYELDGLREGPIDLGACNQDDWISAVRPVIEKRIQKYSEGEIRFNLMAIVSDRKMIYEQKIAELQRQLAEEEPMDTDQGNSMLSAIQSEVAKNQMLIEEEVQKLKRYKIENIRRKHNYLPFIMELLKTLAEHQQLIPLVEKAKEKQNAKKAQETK

66 cancer cell lines = assay: ONCOLINES Profiler, whole panel; assay type: cell-based; conditions: in 3 of 66 cell lines
From the text: The sensitivities of multiple cancer cells can be determined by screening the compounds on a cancer cell line panel, such as an ONCOLINES™ Profiler (Netherlands Translational Research Center) assayed with various tumor cell lines. For more information on ONCOLINES™ methods, see https://www.oncolines.com/oncolines/oncolines-explained-facts/. […] For example, Compound 7A inhibited the proliferation of 57 of the 66 cell lines being tested. […] “A tumor cell line sensitive to the compounds” is referred to that the proliferation of a tumor cell line, when contacted with the compounds, is inhibited by at least 50%, at least 60%, at least 70%, at least 80%, at least 85%, at least 90%, at least 91%, at least 92%, at least 93%, at least 94%, at least 95%, at least 96%, at least 97%, at least 98%, at least 99%, or 100%.
as §1, §2

U937 cells = assay: WST-1 cell viability assay; assay type: cell-based; conditions: Homo sapiens, U-937, U937 cells
Method: (§3) Compound Compound 9A was tested for the ability to inhibit the proliferation of Mia-Paca-2 pancreatic cancer cells. Mia-Paca-2 and MDA-MB-231 cells were seeded into the wells of a 96 well tissue culture plate in complete medium (10% fetal calf serum) and incubated overnight at 37° C./5% CO2). The medium was exchanged for fresh medium containing varying concentrations of Compound 9A and the plate was incubated for 72 hours at 37° C./5% CO2. The viability of cells at the end of this incubation was assessed with the WST-1 reagent. To 10 ml of warm (37° C.) complete medium, 1 ml WST-1 reagent was added. The medium from the wells of the plate with the Mia-Paca-2 cells was removed and replaced with 100 μL of the WST-1 reagent in complete medium. The plate was incubated at 37 37° C./5% CO2. At timed intervals the absorbance at 450 nm was determined for each well in a UVNis plate reader. For each well the slope of the plot of the absorbance 450 nm vs time was determined. The readings were normalized to that of the wells for the untreated control and a dose-response curve was plotted. A fit to the data was made from a four parameter, variable slope program (GraphPad Prism) and the IC50 was determined.
The effect of Compound 7A on U937 cells was assessed using the same experiment described in the Inhibitory Activities against the Proliferation of Mia-Paca-2 and Other Cancer Cells section above. In response to treatment with Compound 7A, proliferation of U937 leukemia cells was inhibited and induced apoptosis was obsessed by trypan blue staining.
U937 cells were treated with the Bcl-2/Bcl-xL inhibitor ABT737 72 hours at varying concentrations and underwent western blot analysis.

MDA-MB-231 cells = assay: WST-1 cell viability assay; assay type: cell-based; conditions: Homo sapiens
Method: as §3
The TNBC cell line MDA-MB-231 express high levels of Mcl-1 and USP9X in addition to Bcl-2 and Bcl-xL. MDA-MB-231 cells were treated with ABT737 for 72 hours at varying concentrations and underwent western blot analysis.

RKO colon cells = assay: WST-1 cell viability assay; assay type: cell-based
Method: as §3
(§4) The same procedures were also applied to the compounds Compound 7A, Compound 6A, and Compound 8A to test their inhibitory activities against RKO colon, Mia-Paca-2 pancreatic and BT-549 cancer cells.

[1] = test system: Mia-Paca-2 pancreatic cancer cells; assay: WST-1 cell viability assay; assay type: cell-based; conditions: for cell viability: Mia-Paca-2 pancreatic cells
Method: as §3, §4

BT-549 cancer cells = assay: WST-1 cell viability assay; assay type: cell-based, human; conditions: BT-549 cells
Method: as §3, §4

[2] = 72 hours, single agent, read-out: IC50, cell viability

USP5, sequence (P45974 whole entry, species assumed): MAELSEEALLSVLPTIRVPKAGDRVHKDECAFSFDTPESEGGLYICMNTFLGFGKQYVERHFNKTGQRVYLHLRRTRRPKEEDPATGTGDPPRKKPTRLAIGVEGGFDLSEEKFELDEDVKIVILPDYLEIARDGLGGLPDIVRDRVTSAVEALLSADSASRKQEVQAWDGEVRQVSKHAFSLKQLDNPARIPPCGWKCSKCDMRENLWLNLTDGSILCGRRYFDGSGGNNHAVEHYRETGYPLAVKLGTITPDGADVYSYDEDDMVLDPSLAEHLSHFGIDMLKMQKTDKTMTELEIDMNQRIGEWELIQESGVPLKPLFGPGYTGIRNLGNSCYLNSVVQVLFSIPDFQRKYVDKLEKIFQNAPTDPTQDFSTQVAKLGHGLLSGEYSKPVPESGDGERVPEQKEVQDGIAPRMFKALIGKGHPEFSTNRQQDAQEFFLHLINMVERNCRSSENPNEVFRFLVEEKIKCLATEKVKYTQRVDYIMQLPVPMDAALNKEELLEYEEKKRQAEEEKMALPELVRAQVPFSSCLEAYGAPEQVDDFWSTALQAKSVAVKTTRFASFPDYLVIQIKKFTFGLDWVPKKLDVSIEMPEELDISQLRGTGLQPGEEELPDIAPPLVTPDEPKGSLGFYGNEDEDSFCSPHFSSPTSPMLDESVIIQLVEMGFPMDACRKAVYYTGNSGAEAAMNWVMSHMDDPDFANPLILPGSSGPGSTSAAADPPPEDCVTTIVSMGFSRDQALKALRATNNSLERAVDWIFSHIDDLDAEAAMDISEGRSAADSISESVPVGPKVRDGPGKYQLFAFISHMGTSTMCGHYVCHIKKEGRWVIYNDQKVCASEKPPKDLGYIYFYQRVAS
USP9X, sequence (Q93008 whole entry, species assumed): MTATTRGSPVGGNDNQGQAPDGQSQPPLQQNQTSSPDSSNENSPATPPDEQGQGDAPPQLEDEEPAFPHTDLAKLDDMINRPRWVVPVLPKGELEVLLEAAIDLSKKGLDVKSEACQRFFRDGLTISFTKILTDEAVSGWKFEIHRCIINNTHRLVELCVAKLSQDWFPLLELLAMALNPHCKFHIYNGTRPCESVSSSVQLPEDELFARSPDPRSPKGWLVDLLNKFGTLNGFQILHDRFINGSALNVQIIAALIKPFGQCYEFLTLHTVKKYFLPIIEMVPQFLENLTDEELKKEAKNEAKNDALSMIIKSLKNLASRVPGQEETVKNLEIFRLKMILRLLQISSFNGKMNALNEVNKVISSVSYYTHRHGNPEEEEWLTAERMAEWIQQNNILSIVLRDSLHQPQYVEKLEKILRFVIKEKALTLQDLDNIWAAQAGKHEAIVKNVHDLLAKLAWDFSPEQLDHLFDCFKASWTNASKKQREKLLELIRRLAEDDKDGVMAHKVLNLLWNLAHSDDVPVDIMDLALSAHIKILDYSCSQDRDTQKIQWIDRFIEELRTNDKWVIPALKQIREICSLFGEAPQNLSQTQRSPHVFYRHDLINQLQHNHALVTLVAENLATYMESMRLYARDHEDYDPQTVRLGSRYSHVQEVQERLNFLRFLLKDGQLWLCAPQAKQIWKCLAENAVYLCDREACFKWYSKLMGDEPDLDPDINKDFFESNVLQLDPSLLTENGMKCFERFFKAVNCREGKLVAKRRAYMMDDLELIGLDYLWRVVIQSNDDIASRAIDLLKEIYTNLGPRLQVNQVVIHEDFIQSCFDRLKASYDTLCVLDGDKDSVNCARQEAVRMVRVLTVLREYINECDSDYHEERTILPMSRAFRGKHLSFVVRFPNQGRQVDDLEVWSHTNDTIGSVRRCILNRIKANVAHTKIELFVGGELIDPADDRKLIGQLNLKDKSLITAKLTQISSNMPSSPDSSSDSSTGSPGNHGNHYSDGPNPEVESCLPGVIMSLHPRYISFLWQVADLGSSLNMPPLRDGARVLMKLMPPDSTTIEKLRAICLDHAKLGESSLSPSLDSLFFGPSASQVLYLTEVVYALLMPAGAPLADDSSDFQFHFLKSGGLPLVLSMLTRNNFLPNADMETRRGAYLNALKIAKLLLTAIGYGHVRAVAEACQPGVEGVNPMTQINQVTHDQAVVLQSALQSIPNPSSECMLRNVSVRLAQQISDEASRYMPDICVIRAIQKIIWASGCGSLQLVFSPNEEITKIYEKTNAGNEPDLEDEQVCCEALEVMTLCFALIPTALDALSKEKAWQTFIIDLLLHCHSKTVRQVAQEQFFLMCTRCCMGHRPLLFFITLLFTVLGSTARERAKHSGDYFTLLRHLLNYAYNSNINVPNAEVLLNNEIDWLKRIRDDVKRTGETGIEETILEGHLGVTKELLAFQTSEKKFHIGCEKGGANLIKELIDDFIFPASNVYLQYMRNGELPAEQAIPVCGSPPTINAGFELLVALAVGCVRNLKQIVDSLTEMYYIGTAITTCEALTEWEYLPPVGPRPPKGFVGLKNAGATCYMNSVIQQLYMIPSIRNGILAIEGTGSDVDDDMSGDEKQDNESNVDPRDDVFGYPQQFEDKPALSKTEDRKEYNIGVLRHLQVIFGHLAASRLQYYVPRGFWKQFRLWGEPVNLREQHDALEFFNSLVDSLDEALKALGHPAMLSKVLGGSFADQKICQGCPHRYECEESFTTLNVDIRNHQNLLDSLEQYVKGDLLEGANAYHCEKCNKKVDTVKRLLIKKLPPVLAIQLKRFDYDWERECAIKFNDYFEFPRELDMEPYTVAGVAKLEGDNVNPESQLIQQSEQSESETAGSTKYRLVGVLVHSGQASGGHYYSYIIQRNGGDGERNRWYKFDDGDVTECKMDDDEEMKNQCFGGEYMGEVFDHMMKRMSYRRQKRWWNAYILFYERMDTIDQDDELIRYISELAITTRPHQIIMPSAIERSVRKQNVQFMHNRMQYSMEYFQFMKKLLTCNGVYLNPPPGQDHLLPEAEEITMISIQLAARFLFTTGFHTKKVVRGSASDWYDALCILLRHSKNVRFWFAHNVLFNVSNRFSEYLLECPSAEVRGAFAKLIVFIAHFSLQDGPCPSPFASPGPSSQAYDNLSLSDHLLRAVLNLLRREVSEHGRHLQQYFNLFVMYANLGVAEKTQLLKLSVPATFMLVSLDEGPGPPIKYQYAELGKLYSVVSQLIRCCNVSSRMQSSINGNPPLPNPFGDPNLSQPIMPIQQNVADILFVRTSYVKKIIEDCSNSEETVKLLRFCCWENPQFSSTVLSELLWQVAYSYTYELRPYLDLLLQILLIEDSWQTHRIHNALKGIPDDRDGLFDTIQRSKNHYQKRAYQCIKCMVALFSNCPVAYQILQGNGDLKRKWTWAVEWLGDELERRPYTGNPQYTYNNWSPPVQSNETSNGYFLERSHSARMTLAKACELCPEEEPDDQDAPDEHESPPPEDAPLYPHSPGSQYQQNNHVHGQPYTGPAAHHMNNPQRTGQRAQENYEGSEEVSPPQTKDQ

CCCC(NC(=O)/C(C#N)=C/c1nc(Cl)ccc1Cl)c1ccc(OCCN2CCOCC2)cc1 (centres unmarked) [EOAI3402143]
inhibits USP5 (USP5): inhibits | inhibits USP9X (USP9X): inhibits | inhibits USP24 (USP24): inhibits

CC(C)C[C@@H](C=O)NC(=O)[C@H](CC(C)C)NC(=O)[C@H](CC(C)C)NC(=O)OCc1ccccc1 [MG132, reference compound] (Cbz-Leu-Leu-Leu-aldehyde)
band intensity of Mcl-1 relative to tubulin (Mcl-1): increased

CCC[C@H](NC(=O)/C(C#N)=C/c1cccc(Br)n1)c1ccccc1 [WP1130, reference compound]
pIC50 (A549): 4.85 | pIC50 (RKO): 5.37 | pIC50 (H82): 5.18 | pIC50 (DU 145): 5.02 | pIC50 (A-172): 5.25 | pIC50 (Hs 57BT): 5.20 | pIC50 (RPMI-7951): 5.38 | pIC50 (BT-20): 5.29 | pIC50 (MOLT-4): 5.40 | pIC50 (CCRF-CEM): 5.36 | pIC50 (LoVo): 5.26 | inhibits USP5 (USP5): inhibited | pIC50 (BT-549): 5.27 | inhibits USP14 (USP14): inhibited | inhibits UCH-L1 (UCH-L1): inhibited | inhibits UCH37 (UCH37): inhibited | inhibits USP9X (USP9X): inhibited | fold more potent than Compound 7A (66 cancer cell lines): above 4 fold

CN(C)CC[C@H](CSc1ccccc1)Nc1ccc(S(=O)(=O)NC(=O)c2ccc(N3CCN(Cc4ccccc4-c4ccc(Cl)cc4)CC3)cc2)cc1[N+](=O)[O-] [ABT737, reference compound]
pIC50 (U937 cells; 72-hour treatment, single agent, read-out: IC50, cell viability): 5.47 | pIC50 (U937 cells; with 0.5 μM Compound 7A, read-out: IC50 of ABT737 with co-treatment): 7.22 | pIC50 (MDA-MB-231 cells; [2]): 5.06 | pIC50 (MDA-MB-231 cells; co-treated with 10 μM Compound 5A, read-out: IC50 of ABT737 with co-treatment): 5.74

CN1CCCCOc2ccc(cc2)C(=O)NCc2ccc(F)c(c2)C(=O)N[C@@H](CC(C)(C)C)C(=O)Nc2ccc(cc2)CCC1=O [Compound 8A]
cell viability (RKO colon cells): significant decreases | cell viability [1]: significant decreases | cell viability (BT-549 cancer cells): significant decreases

C[C@@H]1C[C@@H]([C@H](O)CC2CC(=O)NC(=O)C2)C(=O)[C@@H](C)C1 [cycloheximide, reference compound]
band intensity of Mcl-1 relative to tubulin (Mcl-1): reduced

CN1CCOc2ccc(c(F)c2)C(=O)NCc2cccc(c2)C(=O)N[C@@H](CC(C)(C)C)C(=O)Nc2ccc(cc2)CCN(C)C(=O)CC(C)(C)CC1=O [Compound 9A]
pIC50 (MDA-MB-231 cells; [2]): 5.70 | pIC50 ([1]; Homo sapiens, Mia-Paca-2 cells, 72 hours, read-out: IC50, inhibition of proliferation): 8.00

CN1CCCCOc2ccc(cc2)C(=O)NCc2cccc(c2)C(=O)N[C@@H](CC(C)(C)C)C(=O)Nc2ccc(cc2)CCC1=O [Compound 6A]
cell viability (RKO colon cells): significant decreases | cell viability [1]: significant decreases | cell viability (BT-549 cancer cells): significant decreases
